Among the data in PubChem BioAssay (NCI) are GI50 and TGI values, retold here.

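Five compound concentrations were applied to cells in 96-well plates for 48 hours; endpoints were derived by simple linear interpolation of the resulting dose-response curve. GI50: concentration for 50% inhibition of growth. TGI: concentration producing complete growth inhibition.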 Bounds are passed on as bounds.

Some test systems named below: SF-539 CNS; TK-10 renal; OVCAR-4 ovarian; LOX IMVI melanoma; RXF 393 renal; 786-0 renal; A549 NSCLC; HOP-62 NSCLC; NCI/ADR-RES ovarian; NCI-H522 lung.
What all share (assay): NCI-60 cell line screen, 48 h

In the case of `CCCCC/C(C=C(C#N)C#N)=C/c1ccccc1`, the GI50 in the experiment on SF-539 CNS was 5.17 µM; with TK-10 renal it was 6.54 µM; in the experiment with OVCAR-4 ovarian, 7.74 µM; in the experiment on LOX IMVI melanoma, 2.17 µM; in the experiment with RXF 393 renal, 5.82 µM; with 786-0 renal, 7.45 µM. Moreover, the GI50 in the experiment on A549 NSCLC was 8.95 µM; in the experiment on HOP-62 NSCLC, 6.98 µM; in the experiment with NCI/ADR-RES ovarian, 2.48 µM; in the experiment with NCI-H522 lung, 4.5 µM. Further, the TGI in the experiment with SF-539 CNS is 17.7 µM; in the experiment with TK-10 renal, 42.9 µM; in the experiment with OVCAR-4 ovarian it was more than 55.8 µM; in the experiment on LOX IMVI melanoma, 5.47 µM; in the experiment with RXF 393 renal it was 22.3 µM; with 786-0 renal, 21.6 µM. Also, the TGI in the experiment on A549 NSCLC is more than 43.6 µM; in the experiment with HOP-62 NSCLC, 17.4 µM; in the experiment with NCI/ADR-RES ovarian, 6.46 µM; in the experiment on NCI-H522 lung, 19.7 µM.

For `COC(=O)CCCCN=Cc1c(O)c(O)c(C(C)C)c2cc(C)c(-c3c(C)cc4c(C(C)C)c(O)c(O)c(C=NCCCCC(=O)OC)c4c3O)c(O)c12`, the GI50 was 1.53 µM in the experiment on SF-539 CNS; 1.05 µM in the experiment with TK-10 renal; 0.886 µM in the experiment with OVCAR-4 ovarian; 0.822 µM with LOX IMVI melanoma; 0.596 µM in the experiment on RXF 393 renal; 1.34 µM in the experiment with 786-0 renal. The GI50 in the experiment on A549 NSCLC is 0.979 µM; in the experiment with HOP-62 NSCLC it was 1.22 µM; in the experiment on NCI/ADR-RES ovarian it was 2.32 µM; in the experiment with NCI-H522 lung, 0.838 µM. In addition, the TGI in the experiment on SF-539 CNS was more than 32.5 µM; with TK-10 renal, more than 32.5 µM; in the experiment with OVCAR-4 ovarian it was more than 32.5 µM; in the experiment with LOX IMVI melanoma, 2.43 µM; in the experiment with RXF 393 renal it was 3.18 µM; with 786-0 renal it was 15.1 µM. For the same compound, the TGI is more than 32.5 µM in the experiment on A549 NSCLC, 9.21 µM in the experiment with HOP-62 NSCLC, more than 32.5 µM with NCI/ADR-RES ovarian and 4.43 µM in the experiment with NCI-H522 lung.

Regarding `CC1OC(n2cc(F)c(=O)[nH]c2=O)CCC1O` (stereo not given), the TGI in the experiment with SF-539 CNS is 84.4 µM; in the experiment with TK-10 renal, more than 100 µM; in the experiment on OVCAR-4 ovarian it was more than 100 µM; in the experiment with LOX IMVI melanoma, more than 100 µM; in the experiment with RXF 393 renal, more than 100 µM; with 786-0 renal, more than 100 µM. Besides, the TGI with A549 NSCLC, in the experiment on HOP-62 NSCLC, in the experiment with NCI/ADR-RES ovarian and in the experiment with NCI-H522 lung was more than 100 µM each time.

With `N#C/C(=C1C=C/C(=N/O)C(Br)=C/1)c1ccccc1`, the GI50 was 1.09 µM in the experiment on SF-539 CNS; 5.02 µM in the experiment on TK-10 renal; 5.41 µM with OVCAR-4 ovarian; 0.521 µM with LOX IMVI melanoma; 3.01 µM in the experiment with RXF 393 renal; 3.19 µM in the experiment on 786-0 renal. The GI50 was 3.48 µM in the experiment on A549 NSCLC, 2.25 µM in the experiment with HOP-62 NSCLC, 2.61 µM in the experiment with NCI/ADR-RES ovarian and 1.87 µM in the experiment with NCI-H522 lung. The TGI in the experiment with SF-539 CNS amounted to 2.75 µM; in the experiment with TK-10 renal, 16.5 µM; with OVCAR-4 ovarian, 37.9 µM; in the experiment with LOX IMVI melanoma, 2.9 µM; with RXF 393 renal it was 11.5 µM; with 786-0 renal it was 14.7 µM. The TGI with A549 NSCLC was more than 100 µM; with HOP-62 NSCLC, 13 µM; with NCI/ADR-RES ovarian, 84.1 µM; with NCI-H522 lung it was 5.23 µM.

For the compound `CC1OC(O[C@H]2C[C@@H](O)[C@]3(CO)[C@H]4[C@H](O)C[C@]5(C)[C@@H](C6=CC(=O)OC6)CC[C@]5(O)[C@@H]4CC[C@]3(O)C2)C(O)C(O)C1O` (stereo not given in full), the GI50 in the experiment with SF-539 CNS is 21.4 µM; in the experiment on TK-10 renal it was 16.2 µM; in the experiment with OVCAR-4 ovarian it was 17.3 µM; with LOX IMVI melanoma, 19 µM; in the experiment on RXF 393 renal, 27.5 µM; in the experiment with 786-0 renal, 19.9 µM. Besides, the GI50 with A549 NSCLC was 21.2 µM; in the experiment on HOP-62 NSCLC, 21.7 µM; in the experiment on NCI/ADR-RES ovarian, 19.5 µM; in the experiment on NCI-H522 lung, 17.8 µM. Further, the TGI was 39.5 µM in the experiment on SF-539 CNS; 30 µM with TK-10 renal; 33.1 µM in the experiment with OVCAR-4 ovarian; 34 µM with LOX IMVI melanoma; 75.6 µM in the experiment on RXF 393 renal; 36.3 µM in the experiment on 786-0 renal. Besides, the TGI was 39 µM in the experiment with A549 NSCLC, 51.9 µM with HOP-62 NSCLC, 39.9 µM in the experiment on NCI/ADR-RES ovarian and 32.5 µM in the experiment with NCI-H522 lung.

For the compound `O=C1/C(=C/c2ccc(Br)cc2)C=C(c2ccccc2)N1CCc1ccccc1`, the GI50 in the experiment on SF-539 CNS was 1.77 µM; in the experiment with TK-10 renal it was 1.82 µM; with OVCAR-4 ovarian, 0.554 µM; with LOX IMVI melanoma, 0.82 µM; in the experiment with RXF 393 renal it was 1.26 µM; in the experiment on 786-0 renal, 0.647 µM. Further, the GI50 with A549 NSCLC was 1.37 µM; in the experiment on HOP-62 NSCLC it was 0.347 µM; in the experiment on NCI/ADR-RES ovarian it was 1.08 µM; in the experiment with NCI-H522 lung, 6.54 µM. Also, the TGI in the experiment with SF-539 CNS was 5.57 µM; with TK-10 renal, 6.06 µM; with OVCAR-4 ovarian it was 3.13 µM; in the experiment on LOX IMVI melanoma, 10.8 µM; with RXF 393 renal, 3.78 µM; in the experiment on 786-0 renal, 2.8 µM. For the same compound, the TGI amounted to 11.9 µM with A549 NSCLC, 1.22 µM in the experiment on HOP-62 NSCLC, 8.01 µM in the experiment with NCI/ADR-RES ovarian and 87.1 µM in the experiment with NCI-H522 lung.

Regarding `O=C(NCCOCCOCCNc1cccc2c1C(=O)N(C1CCCNC1=O)C2=O)c1cc2c(o1)C(=O)c1ccccc1C2=O` (stereo not given), the GI50 in the experiment on SF-539 CNS is 1.75 µM; in the experiment on TK-10 renal, 3.39 µM; in the experiment with OVCAR-4 ovarian, 1.41 µM; in the experiment with LOX IMVI melanoma it was 1.17 µM; with RXF 393 renal, 1.8 µM; in the experiment with 786-0 renal, 3.26 µM. For the same compound, the GI50 was 2.11 µM with A549 NSCLC, 1.91 µM with HOP-62 NSCLC, 10.3 µM in the experiment with NCI/ADR-RES ovarian and 2 µM in the experiment on NCI-H522 lung. Besides, the TGI in the experiment with SF-539 CNS was found to be 3.18 µM; in the experiment with TK-10 renal it was 7.14 µM; in the experiment on OVCAR-4 ovarian, 2.73 µM; in the experiment with LOX IMVI melanoma, 3 µM; in the experiment with RXF 393 renal it was 3.99 µM; with 786-0 renal it was 10.9 µM. The TGI with A549 NSCLC was 4.8 µM; in the experiment with HOP-62 NSCLC it was 3.37 µM; in the experiment with NCI/ADR-RES ovarian it was 32 µM; in the experiment on NCI-H522 lung it was 4.77 µM.
